Results from ChEMBL document CHEMBL5154844, “Synthesis and structure-activity relationship study of a potent MHO7 analogue as potential anti-triple negative breast cancer agent” (Eur J Med Chem, 2022).
Activity calls are given as the source filed them. The calls are words filed in the database; no cut-off is given here.

Tests used:
[1] = Selectivity index, ratio of IC50 for Cytotoxic activity against human MCF-10A cells to IC50 for antiproliferative activity against human MDA-MB-231 cells; format: toxicity, cell-based; details: MCF-10A cells versus MDA-MB-231 cells, read-out: Ratio IC50
MDA-MB-231 [2] = assay: Induction of cell cycle arrest in human MDA-MB-231 cells assessed as decrease in accumulation at G2/M phase at 1 uM incubated for 24 hrs by PI/RNase staining based flow cytometry analysis (reference value: 29.3%); format: functional; design: scale not given: the % may be the effect or the level left
MDA-MB-231 [3] = assay: Anti-metastasis activity against human MDA-MB-231 cells assessed as decrease in phosphorylated Smad 3 expression level at >= 1 uM measured after 24 hrs by Western blotting analysis; format: functional, cell-based
MDA-MB-231 [4] = assay: Induction of apoptosis in human MDA-MB-231 cells assessed as increase in intracellular calcium concentration at 2 uM incubated for 24 hrs by Fluo-4/AM staining based flow cytometry (reference value: 9.9%); format: functional
MDA-MB-231 [5] = assay: Induction of cell cycle arrest in human MDA-MB-231 cells assessed as accumulation at G1 phase at 1 uM incubated for 24 hrs by PI/RNase staining based flow cytometry analysis (reference value: 54.8%); format: functional
MDA-MB-231 [6] = assay: Induction of cell cycle arrest in human MDA-MB-231 cells assessed as downregulation of CDK6 gene expression at 2 uM incubated for 24 hrs by quantitative RT-PCR analysis relative to control; format: functional, cell-based
MDA-MB-231 [7] = assay: Induction of apoptosis in human MDA-MB-231 cells assessed as upregulation of cytochrome c expression at 0.5 to 3 uM measured after 24 hrs by Western blotting analysis; format: functional, cell-based; details: dose 0.5-3 µM, DDE = dose-dependent effect
MDA-MB-231 [8] = assay: Induction of apoptosis in human MDA-MB-231 cells assessed as downregulation of p53 protein expression at 0.5 to 3 uM measured after 24 hrs by Western blotting analysis; format: functional, cell-based; details: dose 0.5-3 µM, DDE = dose-dependent effect
MDA-MB-231 [9] = assay: Inhibition of colony formation in human MDA-MB-231 cells assessed as reduction in number of colonies at 2 uM incubated for 10 days by crystal violet staining based assay; format: functional, cell-based; details: time 10.0 day
[10] = Metabolic stability in rat plasma assessed as parent compound remaining measured after 60 mins by TSQ staining based UPLC-MS analysis; format: ADME, cell-free; details: read-out: Stability
MDA-MB-231 [11] = assay: Induction of apoptosis in human MDA-MB-231 cells assessed as activation of cleaved-caspase-3 at 0.5 to 3 uM measured after 24 hrs by Western blotting analysis; format: functional, cell-based; details: dose 0.5-3 µM
MDA-MB-231 [12] = assay: Induction of cell cycle arrest in human MDA-MB-231 cells assessed as decrease in CDK4 expression at 0.5 to 3 uM incubated for 24 hrs by Western blotting analysis; format: functional, cell-based; details: dose 0.5-3 µM
MDA-MB-231 [13] = assay: Induction of cell cycle arrest in human MDA-MB-231 cells assessed as accumulation at G1 phase at 2 uM incubated for 24 hrs by PI/RNase staining based flow cytometry analysis (reference value: 54.8%); format: functional
MDA-MB-231 [14] = assay: Induction of cell cycle arrest in human MDA-MB-231 cells assessed as decrease in accumulation at S phase at 0.5 uM incubated for 24 hrs by PI/RNase staining based flow cytometry analysis (reference value: 16.1%); format: functional; design: scale not given: the % may be the effect or the level left
MDA-MB-231 [15] = assay: Anti-metastasis activity against human MDA-MB-231 cells assessed as increase in Smad 7 expression at 0.5 to 3 uM measured after 24 hrs by Western blotting analysis; format: functional, cell-based; details: dose 0.5-3 µM
MDA-MB-231 [16] = assay: Inhibition of cell migration in human MDA-MB-231 cells at 0.5 to 2 uM incubated for 24 hrs by phase contrast microscopy based scratch wound healing assay; format: functional; details: dose 0.5-2 µM, DDE = dose-dependent effect

COc1ccc(/C=C/C(=O)OC/C(C)=C\C=C/[C@H](C)[C@H]2CC[C@]3(C)C[C@@H]4C(C)=CC(=O)[C@H]4/C(C=O)=C\C[C@@H]23)cc1OC
selectivity ratio [1]: 6.98 | Activity (MDA-MB-231 [2]): 22.5% | Activity (MDA-MB-231 [3]): Active | Activity (MDA-MB-231 [4]): 37.4% | Activity (MDA-MB-231 [5]): 65.1% | Activity (MDA-MB-231 [6]): Active | Activity (MDA-MB-231 [7]): Dde | Activity (MDA-MB-231 [8]): Dde | inhibition (MDA-MB-231 [9]): Active | remaining at 1 h [10]: 78% | Activity (MDA-MB-231 [11]): Active | Activity (MDA-MB-231 [12]): Active | Activity (MDA-MB-231 [13]): 74.6% | Activity (MDA-MB-231 [14]): 15.4% | Activity (MDA-MB-231 [15]): Active | inhibition (MDA-MB-231 [16]): Dde
